In US20080207641A1 (Synta Pharmaceuticals Corp., priority 2006, published 2008):
Converted amounts (≈) assume the structure as drawn. Values belong to the compound of their own block, whether it stands above or below them.

Assays:
[1] = Solubility of salts (water solubility); type: physicochemical; details: for Water Solubility: salts of the parent compound
[2] = Pharmacokinetic profile / oral bioavailability in male SD rats; type: in vivo; details: rat; for AUC(0-inf) / AUC(0-t) / Cmax / Tmax / half-life: plasma
Protocol: The pharmacokinetic profile of 3-fluoro-N-(4-(4-methyl-1-(thiazol-2-yl)-1,2,5,6-tetrahydro pyridin-3-yl)phenyl)isonicotinamide dihydrochloride was studied in male SD rats. Rats were bled at 5 min (IV only), 15 min, 30 min, 1 h, 2 h, 4 h, 6 h, 8 h and 24 h. Samples were prepared by mixing 50 μL of plasma, 5 μL, DMSO, and 250 μL of ACN, followed by shaking for 5 min, centrifuging at 4400 rpm for 15 min at 8° C. 225 μL of supernatant was vacuum dried, reconstituted with 180 μL of 20% ACN (10 mM NH4OAc), shaken for ˜2 min and transferred to 96MT plate. Samples were analyzed by HPLC, Phenomenex Onyx Monolithic C18, 4.6×100 mm column eluted with 30-95% ACN (10 mM NH4OAc) gradient. Detection was at 280 nm.

[3] = Solubility in simulated gastric fluids; type: physicochemical
Text: Solubility in Simulated Gastric Fluids

IL-2 production = assay: Inhibition of IL-2 production in PHA-activated Jurkat cells (ELISA); type: cell-based; details: Homo sapiens, 20 h, PHA 2.5 μg/mL, 20 hours at 37° C., IL-2 ELISA
Protocol: Jurkat cells were placed in a 96 well plate (0.5 million cells per well in 1% FBS medium) then a test compound of this invention was added at different concentrations. After 10 minutes, the cells were activated with PHA (final concentration 2.5 μg/mL) and incubated for 20 hours at 37° C. under CO2. The final volume was 200 μL. Following incubation, the cells were centrifuged and the supernatants collected and stored at −70° C. prior to assaying for IL-2 production. A commercial ELISA kit (IL-2 Eli-pair, Diaclone Research, Besancon, France) was used to detect production of IL-2, from which dose response curves were obtained. The IC50 value was calculated as the concentration at which 50% of maximum IL-2 production after stimulation was inhibited versus a non-stimulation control.

Structure (SMILES): CC1=C(c2ccc(NC(=O)c3ccncc3F)cc2)CN(c2nccs2)CC1.Cl.Cl [3-fluoro-N-(4-(4-methyl-1-(thiazol-2-yl)-1,2,5,6-tetrahydropyridin-3-yl)phenyl)isonicotinamide dihydrochloride]
solubility ([1]; dihydrochloride salt): > 12000 µg/mL
bioavailability ([2]; in vivo, PO, 50 mg/kg, 0.5% MC, read-out: % F (oral bioavailability)): 93.4%
AUC(0-inf) ([2]; IV, 5 mg/kg, DRD formulation): 37.6 µM·h
AUC(0-t) ([2]; IV, 5 mg/kg, DRD formulation): 37.5 µM·h
Cmax ([2]; IV, 5 mg/kg, DRD formulation): 34.6 µM
Tmax ([2]; IV, 5 mg/kg, DRD formulation): 0.083 h
half-life ([2]; IV, 5 mg/kg, DRD formulation): 1 h
AUC(0-inf) ([2]; PO, 50 mg/kg, 0.5% MC): 351 µM·h
AUC(0-t) ([2]; PO, 50 mg/kg, 0.5% MC): 348 µM·h
Cmax ([2]; PO, 50 mg/kg, 0.5% MC): 43.5 µM
Tmax ([2]; PO, 50 mg/kg, 0.5% MC): 2 h
half-life ([2]; PO, 50 mg/kg, 0.5% MC): 3.2 h

Structure (SMILES): CC1=C(c2ccc(NC(=O)c3ccncc3F)cc2)CN(c2nccs2)CC1 [Citrate, 3-fluoro-N-(4-(4-methyl-1-(thiazol-2-yl)-1,2,5,6-tetrahydropyridin-3-yl)phenyl)isonicotinamide]
Water Solubility [1]: 1190 µg/mL

solubility [3]: 150 µM (≈ 61.9 µg/mL)
IC50 (IL-2 production): ≤ 0.035 µM
Structure (SMILES): CC1=C(c2ccc(NC(=O)c3c(F)cncc3F)cc2)CN(c2nccs2)CC1 [Compound 32, 3,5-difluoro-N-(4-(4-methyl-1-(thiazol-2-yl)-1,2,5,6-tetrahydropyridin-3-yl)phenyl)isonicotinamide]

solubility [3]: 150 µM (≈ 59.2 µg/mL)
IC50 (IL-2 production): 0.075 to 0.15 µM
Structure (SMILES): CC1=C(c2cnc(NC(=O)c3ccccc3F)cn2)CN(c2nnn(C)n2)CC1 [Compound 33, 2-fluoro-N-(5-(4-methyl-1-(2-methyl-2H-tetrazol-5-yl)-1,2,5,6-tetrahydropyridin-3-yl)pyrazin-2-yl)benzamide]

Structure (SMILES): CC1=C(c2ccc(NC(=O)c3ccncc3F)cc2)CN(c2nccs2)CC1 [Compound H2SO4, 3-fluoro-N-(4-(4-methyl-1-(thiazol-2-yl)-1,2,5,6-tetrahydropyridin-3-yl)phenyl)isonicotinamide]
Water Solubility [1]: 12690 µg/mL

Structure (SMILES): CC1=C(c2ccc(NC(=O)c3ccncc3F)cc2)CN(c2nccs2)CC1 [HBr, 3-fluoro-N-(4-(4-methyl-1-(thiazol-2-yl)-1,2,5,6-tetrahydropyridin-3-yl)phenyl)isonicotinamide]
Water Solubility [1]: 11560 µg/mL

Structure (SMILES): CC1=C(c2ccc(NC(=O)c3ccncc3F)cc2)CN(c2nccs2)CC1 [Succinate, 3-fluoro-N-(4-(4-methyl-1-(thiazol-2-yl)-1,2,5,6-tetrahydropyridin-3-yl)phenyl)isonicotinamide]
Water Solubility [1]: 360 µg/mL

Structure (SMILES): CC1=C(c2ccc(NC(=O)c3ccncc3F)cc2)CN(c2nccs2)CC1 [Tartrate, 3-fluoro-N-(4-(4-methyl-1-(thiazol-2-yl)-1,2,5,6-tetrahydropyridin-3-yl)phenyl)isonicotinamide]
Water Solubility [1]: 1340 µg/mL
